Data set [1] has as its target T1, mushroom tyrosinase (Agaricus bisporus, UniProt C7FF04). The experiment in a line: Inhibition kinetics (Lineweaver-Burk and secondary plots). Set-up: purchased Sigma Korea EC-232-653-4. The class given is biochemical. The method, then: To understand the inhibitory mechanism of synthetic compounds on tyrosinase, an inhibition kinetic study was performed. […] The kinetic results of the enzyme expressed by the Lineweaver–Burk plot of 1/V versus 1/[S] for different inhibitor concentrations provided a series of straight lines. […] Additionally, the Km value increased with increasing the concentration of the inhibitor. […] The inhibition constant Ki was computed from Figure 4.
A series of experiments were performed to regulate the inhibition kinetics of 9h by following the already reported methods. The inhibitor concentrations for 9h were 0.00, 0.049, 0.098, and 0.196 µM. Substrate (L-DOPA) concentrations were between 0.0625 to 2 mM in all kinetic studies. Pre-incubation and measurement time were the same as discussed in the mushroom tyrosinase inhibition assay protocol. Maximal initial velocity was obtained from the initial linear portion of absorbance up to five minutes after the addition of enzyme at the 30 s interval. The inhibition type of the enzyme was assayed by Lineweaver–Burk plots of the inverse of velocities (1/V) versus the inverse of substrate concentration 1/[S] mM^−1.
Target sequence in this assay (C7FF04 1-392 limits assumed): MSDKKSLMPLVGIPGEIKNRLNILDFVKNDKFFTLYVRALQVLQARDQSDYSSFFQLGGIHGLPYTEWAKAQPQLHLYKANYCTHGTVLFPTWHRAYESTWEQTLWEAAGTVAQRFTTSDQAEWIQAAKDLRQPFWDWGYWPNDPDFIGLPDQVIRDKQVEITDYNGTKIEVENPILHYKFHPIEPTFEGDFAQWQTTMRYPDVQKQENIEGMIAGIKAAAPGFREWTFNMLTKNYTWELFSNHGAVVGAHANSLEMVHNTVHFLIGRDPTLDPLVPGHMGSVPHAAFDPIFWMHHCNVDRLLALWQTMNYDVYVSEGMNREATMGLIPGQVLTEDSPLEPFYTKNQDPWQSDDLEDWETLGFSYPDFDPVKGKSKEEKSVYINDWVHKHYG

Data set [2] addresses T1, mushroom tyrosinase. The experiment in a line: Mushroom tyrosinase inhibition assay (dopachrome technique, L-DOPA substrate). It counts as biochemical. How it is done: The inhibition of mushroom tyrosinase was determined by an alteration of the dopachrome technique using L-DOPA as a substrate. The mushroom tyrosinase (EC-232-653-4) was purchased from Sigma Korea. […] After the incubation time, the absorbance was measured at 475 nm using a microplate reader (SpectraMax ABS, Molecular Devices, California, CA, USA) and the inhibition percentage was calculated in relation to the control. […] Each concentration was scrutinized in three independent experiments. IC50 values were calculated by non-linear regression using GraphPad Prism 5.0. The % inhibition of tyrosinase was calculated as follows:Inhibition (%) = [(B−S)/B] ×100 where the B and S are the absorbances of the blank control and normal samples, respectively.
Target sequence in this assay (C7FF04 2-392): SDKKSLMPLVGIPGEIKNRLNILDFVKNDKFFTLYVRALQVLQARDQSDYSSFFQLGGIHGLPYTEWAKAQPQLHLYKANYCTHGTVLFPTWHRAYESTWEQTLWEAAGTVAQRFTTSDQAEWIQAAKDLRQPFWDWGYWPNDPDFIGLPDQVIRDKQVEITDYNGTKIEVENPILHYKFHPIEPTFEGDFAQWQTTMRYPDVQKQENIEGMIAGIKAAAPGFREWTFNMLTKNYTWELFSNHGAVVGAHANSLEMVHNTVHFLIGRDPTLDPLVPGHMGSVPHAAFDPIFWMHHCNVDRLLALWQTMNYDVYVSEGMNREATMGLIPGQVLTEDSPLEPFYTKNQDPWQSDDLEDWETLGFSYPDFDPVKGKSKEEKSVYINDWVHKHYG

“Also recorded” adds a separate entry of the source.

Usually Ki stands for a dissociation constant, usually derived from enzyme kinetics or from competition with a known ligand. In the case of `O=C(CSc1nnc(-c2ccccc2F)n1-c1ccc(F)cc1)Nc1ccc(F)cc1` [9h, N-(4-fluorophenyl)-2-(5-(2-fluorophenyl)-4-(4-fluorophenyl)-4H-1,2,4-triazol-3-ylthio) Acetamide], on mushroom tyrosinase [1] (Lineweaver-Burk plot, Vmax same, Km increased), the inhibition type result is recorded as “competitively inhibits”. The inhibition constant Ki at mushroom tyrosinase [1] (from plot of slope versus inhibitor concentration, L-DOPA 0.0625-2 mM, read-out: inhibition constant Ki) is 18 nM.

In general, melting point refers to the temperature, or range, at which the solid turns liquid. `O=C(CSc1nnc(-c2ccccc2)n1-c1ccc(F)cc1)Nc1ccccc1` [9d, 2-(4-(4-Fluorophenyl)-5-phenyl-4H-1,2,4-triazol-3-ylthio)-N-phenylacetamide] came in with a melting point of 206 °C.

The compound `O=C(CSc1nnc(-c2ccccc2)n1-c1ccc(F)cc1)Nc1ccc(F)cc1` [9e, N-(4-fluorophenyl)-2-(4-(4-fluorophenyl)-5-phenyl-4H-1,2,4-triazol-3-ylthio) Acetamide] returned a melting point of 220.1 °C.

With `O=C(CSc1nnc(-c2ccccc2F)n1-c1ccc(F)cc1)Nc1ccc(Br)cc1` [9i, N-(4-bromophenyl)-2-(5-(2-fluorophenyl)-4-(4-fluorophenyl)-4H-1,2,4-triazol-3-ylthio) Acetamide], the melting point stood at 248.9 °C. The “response against mushroom tyrosinase inhibition (in words)” value on mushroom tyrosinase [2] was “did not show any response”.

Turning to `O=C(CSc1nnc(-c2ccc(F)cc2)n1-c1ccc(F)cc1)Nc1ccc(F)cc1` [9b, 2-(4,5-Bis(4-fluorophenyl)-4H-1,2,4-triazol-3-ylthio)-N-(4-fluorophenyl) Acetamide], the melting point is 195.3 °C. Besides, the “response against mushroom tyrosinase inhibition (in words)” value at mushroom tyrosinase [2] is reported as “did not show any response; also recorded: ineffective counter response”.

`O=C(CSc1nnc(-c2ccc(F)cc2)n1-c1ccc(F)cc1)Nc1ccc(Br)cc1` [9c, 2-(4,5-Bis(4-fluorophenyl)-4H-1,2,4-triazol-3-ylthio)-N-(4-bromophenyl) Acetamide] yielded a melting point of 219.3 °C. Also, the “response against mushroom tyrosinase inhibition (in words)” value on mushroom tyrosinase [2] is “did not show any response; also recorded: ineffective counter response”.

The values are drawn from publication PMC8911699, “Biological and Cheminformatics Studies of Newly Designed Triazole Based Derivatives as Potent Inhibitors against Mushroom Tyrosinase” (Molecules, 2022).
